Assay results published in US12404295B2, “(Hetero)aryl-methyl-thio-beta-D-galactopyranoside derivatives” (Idorsia Pharmaceuticals Ltd, priority 2019, dated 2025).
Like-named read-outs stand apart in the source and are kept apart here.

What was measured:
human Gal-3 (hGal-3) = human Gal-3 (hGal-3) (Homo sapiens (Human), UniProt P17931); experiment: competitive binding assay: biotinylated hGal-3 binding to microplate-adsorbed asialofetuin (ASF)
Method in brief: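 Serially diluted compounds compete with biotinylated hGal-3 binding to adsorbed asialofetuin (3 hours, 4° C). After washing, streptavidin-peroxidase at 80 ng/mL for 1 hour at 4° C, with ABTS colour read-out. IC50 values are averaged over repeated runs.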

human Gal-1 (hGal-1) = human Gal-1 (hGal-1) (Homo sapiens (Human), UniProt P09382); experiment: competitive binding assay: biotinylated hGal-1 binding to microplate-adsorbed asialofetuin (ASF); settings: Table 15; read-out: IC50 (Galectin-1 inhibition)
Method in brief: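 Spectrophotometric competition readout: after compound and biotinylated hGal-1 (300-1000 ng/mL) sit 3 h at 4° C on adsorbed asialofetuin, streptavidin-peroxidase (1 h, 4° C) and ABTS reveal residual binding. Reported IC50 values are means of repeat runs.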

[1] = Table 10, 2-OMe-Gal inhibitors, read-out: IC50 (Gal-3 inhibition)
[2] = Table 5, read-out: IC50 (Gal-3 inhibition)
[3] = Table 11, read-out: IC50 (Gal-3 inhibition)
[4] = Gal-3 inhibition, binding of biotinylated hGal-3 to ASF, mean values, read-out: IC50

Sequence of human Gal-3 (hGal-3) (P17931 whole entry): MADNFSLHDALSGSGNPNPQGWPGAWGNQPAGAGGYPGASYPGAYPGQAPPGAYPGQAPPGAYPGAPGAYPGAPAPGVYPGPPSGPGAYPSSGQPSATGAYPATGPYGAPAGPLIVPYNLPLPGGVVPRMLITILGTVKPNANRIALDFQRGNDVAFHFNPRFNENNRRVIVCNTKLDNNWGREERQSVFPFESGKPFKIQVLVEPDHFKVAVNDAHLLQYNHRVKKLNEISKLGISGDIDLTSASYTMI
Sequence of human Gal-1 (hGal-1) (P09382 whole entry): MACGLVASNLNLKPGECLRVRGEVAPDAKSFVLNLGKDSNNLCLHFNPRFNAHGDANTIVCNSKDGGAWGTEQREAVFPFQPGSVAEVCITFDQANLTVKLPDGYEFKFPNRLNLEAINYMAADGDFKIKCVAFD

| Structure (SMILES) | IC50 (human Gal-1 (hGal-1)) [nM] | IC50 (human Gal-3 (hGal-3); [2]) [nM] | further results |
| --- | --- | --- | --- |
| CO[C@@H]1[C@@H](n2cc(-c3cc(F)c(F)c(F)c3)nn2)[C@@H](O)[C@@H](CO)O[C@H]1S[C@@H](c1ccccc1C(C)C)C1(O)CCC(F)(F)CC1 [Example 2.44.105S.I., (2R,3R,4S,5R,6S)-6-(((S)-(4,4-Difluoro-1-hydroxycyclohexyl)(2-isopropylphenyl)methyl)thio)-2-(hydroxymethyl)-5-methoxy-4-(4-(3,4,5-trifluorophenyl)-1H-1,2,3-triazol-1-yl)tetrahydro-2H-pyran-3-ol] | 53300 |  | IC50 (human Gal-3 (hGal-3); [1]): 70500 nM |
| CO[C@@H]1[C@@H](n2cc(-c3cc(F)c(F)c(F)c3)nn2)[C@@H](O)[C@@H](CO)O[C@H]1S[C@H](c1ccccc1C1CC1)C1(O)CCC(F)(F)CC1 [Example 2.44.106R.I., (2R,3R,4S,5R,6S)-6-(((R)-(2-Cyclopropylphenyl)(4,4-difluoro-1-hydroxycyclohexyl)methyl)thio)-2-(hydroxymethyl)-5-methoxy-4-(4-(3,4,5-trifluorophenyl)-1H-1,2,3-triazol-1-yl)tetrahydro-2H-pyran-3-ol] | 210 |  | IC50 (human Gal-3 (hGal-3); [1]): 180 nM |
| OC[C@H]1O[C@@H](SC(c2ccccc2C(F)(F)F)C2(O)CCC(F)(F)CC2)[C@H](O)[C@@H](n2cc(-c3cc(F)c(F)c(F)c3)nn2)[C@H]1O (stereo partly drawn) [Example 2.44.112., (2S,3R,4S,5R,6R)-2-(((4,4-Difluoro-1-hydroxycyclohexyl)(2-(trifluoromethyl)phenyl)methyl)thio)-6-(hydroxymethyl)-4-(4-(3,4,5-trifluorophenyl)-1H-1,2,3-triazol-1-yl)tetrahydro-2H-pyran-3,5-diol] | 950 | 300 |  |
| OC[C@H]1O[C@@H](S[C@H](c2ccccc2C(F)(F)F)C2(O)CCC(F)(F)CC2)[C@H](O)[C@@H](n2cc(-c3cc(F)c(F)c(F)c3)nn2)[C@H]1O [Example 2.44.112R., (2S,3R,4S,5R,6R)-2-(((R)-(4,4-Difluoro-1-hydroxycyclohexyl)(2-(trifluoromethyl)phenyl)methyl)thio)-6-(hydroxymethyl)-4-(4-(3,4,5-trifluorophenyl)-1H-1,2,3-triazol-1-yl)tetrahydro-2H-pyran-3,5-diol] | 770 | 80 |  |
| CO[C@@H]1[C@@H](n2cc(-c3cc(F)c(F)c(F)c3)nn2)[C@@H](O)[C@@H](CO)O[C@H]1SC(c1nc(C)c(C)nc1C)C1(O)CCC(F)(F)CC1 (stereo partly drawn) [Example 2.44.119.I., (2R,3R,4S,5R,6S)-6-(((4,4-Difluoro-1-hydroxycyclohexyl)(3,5,6-trimethylpyrazin-2-yl)methyl)thio)-2-(hydroxymethyl)-5-methoxy-4-(4-(3,4,5-trifluorophenyl)-1H-1,2,3-triazol-1-yl)tetrahydro-2H-pyran-3-ol] | 1300 |  | IC50 (human Gal-3 (hGal-3); [3]): 260 nM |
| Cc1nc(C)c([C@@H](S[C@@H]2O[C@H](CO)[C@H](O)[C@H](n3cc(-c4cc(F)c(F)c(F)c4)nn3)[C@H]2O)C2(O)CCC(F)(F)CC2)nc1C [Example 2.44.119R., (2S,3R,4S,5R,6R)-2-(((R)-(4,4-Difluoro-1-hydroxycyclohexyl)(3,5,6-trimethylpyrazin-2-yl)methyl)thio)-6-(hydroxymethyl)-4-(4-(3,4,5-trifluorophenyl)-1H-1,2,3-triazol-1-yl)tetrahydro-2H-pyran-3,5-diol] | 230 | 30 |  |
| CO[C@@H]1[C@@H](n2cc(-c3cc(F)c(F)c(F)c3)nn2)[C@@H](O)[C@@H](CO)O[C@H]1S[C@H](c1nc(C)c(C)nc1C)C1(O)CCC(F)(F)CC1 [Example 2.44.119R.I., (2R,3R,4S,5R,6S)-6-(((R)-(4,4-Difluoro-1-hydroxycyclohexyl)(3,5,6-trimethylpyrazin-2-yl)methyl)thio)-2-(hydroxymethyl)-5-methoxy-4-(4-(3,4,5-trifluorophenyl)-1H-1,2,3-triazol-1-yl)tetrahydro-2H-pyran-3-ol] | 450 |  | IC50 (human Gal-3 (hGal-3); [3]): 90 nM |
| Cc1nc(C)c([C@H](S[C@@H]2O[C@H](CO)[C@H](O)[C@H](n3cc(-c4cc(F)c(F)c(F)c4)nn3)[C@H]2O)C2(O)CCC(F)(F)CC2)nc1C [Example 2.44.119S., (2S,3R,4S,5R,6R)-2-(((S)-(4,4-Difluoro-1-hydroxycyclohexyl)(3,5,6-trimethylpyrazin-2-yl)methyl)thio)-6-(hydroxymethyl)-4-(4-(3,4,5-trifluorophenyl)-1H-1,2,3-triazol-1-yl)tetrahydro-2H-pyran-3,5-diol] | 7210 | 700 |  |
| CO[C@@H]1[C@@H](n2cc(-c3cc(F)c(F)c(F)c3)nn2)[C@@H](O)[C@@H](CO)O[C@H]1S[C@@H](c1nc(C)c(C)nc1C)C1(O)CCC(F)(F)CC1 [Example 2.44.119S.I., (2R,3R,4S,5R,6S)-6-(((S)-(4,4-Difluoro-1-hydroxycyclohexyl)(3,5,6-trimethylpyrazin-2-yl)methyl)thio)-2-(hydroxymethyl)-5-methoxy-4-(4-(3,4,5-trifluorophenyl)-1H-1,2,3-triazol-1-yl)tetrahydro-2H-pyran-3-ol] | 28600 |  | IC50 (human Gal-3 (hGal-3); [3]): 5110 nM |

Second part, led by results:

| IC50 (human Gal-1 (hGal-1)) [nM] | IC50 (human Gal-3 (hGal-3); [2]) [nM] | Structure (SMILES) | further results |
| --- | --- | --- | --- |
| 380 | 110 | Cc1conc1[C@@H](S[C@@H]1O[C@H](CO)[C@H](O)[C@H](n2cc(-c3cc(F)c(F)c(F)c3)nn2)[C@H]1O)C1(O)CCC(F)(F)CC1 [Example 2.44.120R., (2S,3R,4S,5R,6R)-2-(((R)-(4,4-Difluoro-1-hydroxycyclohexyl)(4-methylisoxazol-3-yl)methyl)thio)-6-(hydroxymethyl)-4-(4-(3,4,5-trifluorophenyl)-1H-1,2,3-triazol-1-yl)tetrahydro-2H-pyran-3,5-diol] |  |
| 610 |  | CO[C@@H]1[C@@H](n2cc(-c3cc(F)c(F)c(F)c3)nn2)[C@@H](O)[C@@H](CO)O[C@H]1S[C@H](c1nocc1C)C1(O)CCC(F)(F)CC1 [Example 2.44.120R.I., (2R,3R,4S,5R,6S)-6-(((R)-(4,4-Difluoro-1-hydroxycyclohexyl)(4-methylisoxazol-3-yl)methyl)thio)-2-(hydroxymethyl)-5-methoxy-4-(4-(3,4,5-trifluorophenyl)-1H-1,2,3-triazol-1-yl)tetrahydro-2H-pyran-3-ol] | IC50 (human Gal-3 (hGal-3); [1]): 210 nM |
| 22600 | 8270 | Cc1conc1[C@H](S[C@@H]1O[C@H](CO)[C@H](O)[C@H](n2cc(-c3cc(F)c(F)c(F)c3)nn2)[C@H]1O)C1(O)CCC(F)(F)CC1 [Example 2.44.120S., (2S,3R,4S,5R,6R)-2-(((S)-(4,4-Difluoro-1-hydroxycyclohexyl)(4-methylisoxazol-3-yl)methyl)thio)-6-(hydroxymethyl)-4-(4-(3,4,5-trifluorophenyl)-1H-1,2,3-triazol-1-yl)tetrahydro-2H-pyran-3,5-diol] |  |
| 200 | 50 | OC[C@H]1O[C@@H](S[C@H](c2ncccc2C(F)(F)F)C2(O)CCC(F)(F)CC2)[C@H](O)[C@@H](n2cc(-c3cc(F)c(F)c(F)c3)nn2)[C@H]1O [Example 2.44.125R., (2S,3R,4S,5R,6R)-2-(((R)-(4,4-Difluoro-1-hydroxycyclohexyl)(3-(trifluoromethyl)pyridin-2-yl)methyl)thio)-6-(hydroxymethyl)-4-(4-(3,4,5-trifluorophenyl)-1H-1,2,3-triazol-1-yl)tetrahydro-2H-pyran-3,5-diol] |  |
| 260 |  | CO[C@@H]1[C@@H](n2cc(-c3cc(F)c(F)c(F)c3)nn2)[C@@H](O)[C@@H](CO)O[C@H]1S[C@H](c1ncccc1C(F)(F)F)C1(O)CCC(F)(F)CC1 [Example 2.44.125R.I., (2R,3R,4S,5R,6S)-6-(((R)-(4,4-Difluoro-1-hydroxycyclohexyl)(3-(trifluoromethyl)pyridin-2-yl)methyl)thio)-2-(hydroxymethyl)-5-methoxy-4-(4-(3,4,5-trifluorophenyl)-1H-1,2,3-triazol-1-yl)tetrahydro-2H-pyran-3-ol] | IC50 (human Gal-3 (hGal-3); Table 9, 2-OMe-Gal inhibitors, read-out: IC50 (Gal-3 inhibition)): 60 nM |
| 3410 | 820 | OC[C@H]1O[C@@H](S[C@@H](c2ncccc2C(F)(F)F)C2(O)CCC(F)(F)CC2)[C@H](O)[C@@H](n2cc(-c3cc(F)c(F)c(F)c3)nn2)[C@H]1O [Example 2.44.125S., (2S,3R,4S,5R,6R)-2-(((S)-(4,4-Difluoro-1-hydroxycyclohexyl)(3-(trifluoromethyl)pyridin-2-yl)methyl)thio)-6-(hydroxymethyl)-4-(4-(3,4,5-trifluorophenyl)-1H-1,2,3-triazol-1-yl)tetrahydro-2H-pyran-3,5-diol] |  |
| 60 |  | Cc1cccnc1C(S[C@@H]1O[C@H](CO)[C@H](O)[C@H](n2cc(-c3cc(F)c(F)c(F)c3)nn2)[C@H]1O)C1(O)CCC(F)(F)CC1 (stereo partly drawn) [Example 2.44.126., (2S,3R,4S,5R,6R)-2-(((4,4-Difluoro-1-hydroxycyclohexyl)(3-methylpyridin-2-yl)methyl)thio)-6-(hydroxymethyl)-4-(4-(3,4,5-trifluorophenyl)-1H-1,2,3-triazol-1-yl)tetrahydro-2H-pyran-3,5-diol] | IC50 (human Gal-3 (hGal-3); [4]): 60 nM |
| 1320 |  | CCO[C@@H]1[C@@H](n2cc(-c3cc(F)c(F)c(F)c3)nn2)[C@@H](O)[C@@H](CO)O[C@H]1SC(c1ncccc1C)C1(O)CCC(F)(F)CC1 (stereo partly drawn) [Example 2.44.126.II., (2R,3R,4S,5R,6S)-6-(((4,4-Difluoro-1-hydroxycyclohexyl)(3-methylpyridin-2-yl)methyl)thio)-5-ethoxy-2-(hydroxymethyl)-4-(4-(3,4,5-trifluorophenyl)-1H-1,2,3-triazol-1-yl)tetrahydro-2H-pyran-3-ol] | IC50 (human Gal-3 (hGal-3); [4]): 160 nM |
